Broadly, the Ki is the dissociation constant of the complex between target and ligand, obtained from inhibition or displacement. One may read the viability as a per cent measure of how many cells are alive, often set against a control. By cell viability is commonly meant a read-out of living cells in per cent, often relative to untreated cells. A higher cell viability goes with less harm to the cells.

For one series, the target named is huAChE (Homo sapiens, UniProt P22303). Kind of series: Enzyme kinetic study of huAChE (Lineweaver-Burk). The series is classed as biochemical. To be noted: for type of AChE inhibition: Lineweaver-Burk plot; for Ki: replots of slope versus concentration, read-out: inhibition constant Ki. On the set-up: AChE from human erythrocytes (Sigma Co.); purchased Sigma Co; host or cells: human erythrocytes. From the text:
An enzyme kinetic study was applied to determine the mechanism of AChE inhibition for compounds 5f and 7k. The lineweaver-Burk double reciprocal plot was used to define the inhibition by plotting the initial velocities of the substrate at the y-axis and increasing concentrations of the substrate at the x-axis[17]^,[19]. […] […].
Figure 3. Enzyme kinetic study on the mechanism of huAChE inhibition by compounds 5f and 7k. […] (D) Representing the plots of slope versus the concentration of 7k for determining the inhibition constants Ki. […] |

The target in series [1] is T1, Aβ1–42 (Homo sapiens, UniProt P05067). Put plainly: Self-induced Aβ1–42 aggregation, Thioflavin T fluorescence. As to conditions: tested compounds and Aβ1–42 25 μM. The series is classed as biochemical.
T1 sequence (P05067 672-713): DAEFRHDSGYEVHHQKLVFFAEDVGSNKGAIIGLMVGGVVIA
Text: (§1) The Thioflavin T-based flurometric assay was employed to test the inhibition potency on self-induced/Cu^2+-induced Aβ1-42 aggregation.
Series [2] addresses huAChE-induced Aβ1–40 aggregation (Homo sapiens, UniProt P22303). Put plainly: huAChE-induced Aβ1–40 aggregation, ThT assay. The series is classed as biochemical. As to conditions: inhibitor 100 μM, Aβ1–40 230 μM, Aβ1–40/AChE ratio 100/1.
A further series relates to BV-2 cells. Put plainly: Cytotoxicity on BV-2 cells, MTT assay. Type of series: cell-based. To be noted: 1 μM, 3 μM and 9 μM. As for the experimental part:
Compounds 5f and 7k were selected to test the anti-inflammatory potency by measuring the production of inflammatory mediators TNF-α and NO in LPS-induced BV-2 cells[32]^,[33]. • Cytotoxicity of compounds 5f and 7k on BV-2 cells. Firstly, the cytotoxicity of compounds 5f and 7k were tested using an MTT assay. […] In inhibition of LPS-induced, NO production was tested through the Griess reaction method. […] […]. In addition, to further investigate the effects of compounds 5f and 7k on LPS-induced TNF-α production in BV-2 cells, the enzyme-linked immunosorbent assay (ELISA) was used. […].
The anti-neuroinflammatory property of compounds 5f and 7k was assessed using BV-2 cells by evaluating the level of NO production and TNF-α production[32]^,[33]. Firstly, the cytotoxicity of compounds 5f and 7k was tested on BV-2 cells using an MTT assay. BV-2 cells were seeded in DMEM (100 μL) and cultured in a 96-well cell culture microplate and incubated in a humidified incubator containing 5% CO2 at 37 °C for 24 h. Then, 10 μL of 5f or 7k were added to cells in triplicate wells, followed by incubation for another 30 min. […] Finally, the crystals obtained were dissolved in DMSO (200 μ L) and OD values were measured at 490 nm. The results were recorded and expressed as the percent cell viability compared to the control group.

Series [3] deals with TNF-α production in LPS-induced BV-2 cells. Kind of series: TNF-α production in BV-2 cells, ELISA. As to conditions: 1.0 μg/mL LPS. The series is classed as cell-based. As for the experimental part:
Compounds 5f and 7k were selected to test the anti-inflammatory potency by measuring the production of inflammatory mediators TNF-α and NO in LPS-induced BV-2 cells[32]^,[33]. • Cytotoxicity of compounds 5f and 7k on BV-2 cells. Firstly, the cytotoxicity of compounds 5f and 7k were tested using an MTT assay. […] In inhibition of LPS-induced, NO production was tested through the Griess reaction method. […] In addition, to further investigate the effects of compounds 5f and 7k on LPS-induced TNF-α production in BV-2 cells, the enzyme-linked immunosorbent assay (ELISA) was used.
Inhibition of LPS-induced TNF-α production was evaluated with an enzyme-linked immunosorbent assay (ELISA). The methods of BV-2 cells culture, adding different concentrations of tested compounds 5f or 7k (1 μM, 3 μM and 9 μM) (10 μL) and LPS (1.0 μg/mL, 10 μL) and setting blank control group were the same as above in cytotoxicity assay. Then, the supernatant of the cell culture solution (50 μL) was added to a 96-well plate and the release of cytokine TNF-α was measured by ELISA according to the instructions of the ELISA kit.
(In an ELISA, binding on a coated surface is turned into a signal by an enzyme label.)

For series [4] the following is noted: for ORAC: Trolox as standard.
Experimental: The skeleton compounds naringenin and apigenin were also evaluated for comparison purposes, and vitamin E analogue Trolox was used as a standard.
The antioxidant potency of target compounds was tested using an oxygen radical absorbance capacity fluorescein (ORAC-FL) assay.
The next series relates to PC12 cells. Kind of series: Neuroprotective effect on H2O2-induced PC12 cells injury, MTT assay. The series is classed as cell-based. As to conditions: 100 μM H2O2, PC12 cells. A general note: Formazan colour is commonly taken as a measure of viable cells.
A further series deals with AChE PAS (Homo sapiens, UniProt P22303). Kind of series: biochemical. Type of series: binding.
AChE PAS, sequence (P22303 32-614): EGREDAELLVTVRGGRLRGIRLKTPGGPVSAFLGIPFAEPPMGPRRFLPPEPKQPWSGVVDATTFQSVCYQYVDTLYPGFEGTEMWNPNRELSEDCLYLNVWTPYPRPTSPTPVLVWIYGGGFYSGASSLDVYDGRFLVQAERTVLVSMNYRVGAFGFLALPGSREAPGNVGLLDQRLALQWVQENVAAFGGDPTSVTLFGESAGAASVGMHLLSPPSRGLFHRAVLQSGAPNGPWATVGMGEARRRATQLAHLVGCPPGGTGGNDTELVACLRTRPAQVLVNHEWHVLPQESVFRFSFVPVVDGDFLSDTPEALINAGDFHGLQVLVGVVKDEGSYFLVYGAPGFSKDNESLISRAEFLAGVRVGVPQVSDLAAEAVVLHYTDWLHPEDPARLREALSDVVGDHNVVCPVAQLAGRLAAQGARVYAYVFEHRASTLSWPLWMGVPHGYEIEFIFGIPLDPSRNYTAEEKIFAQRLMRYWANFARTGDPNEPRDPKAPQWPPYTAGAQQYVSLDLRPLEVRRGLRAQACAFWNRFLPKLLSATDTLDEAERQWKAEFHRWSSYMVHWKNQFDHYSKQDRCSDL
Series [5] has as its target T1, Aβ1–42. Kind of series: Cu^2+-induced Aβ1–42 aggregation, ThT fluorescence. The series is classed as biochemical. To be noted: tested compounds and Aβ1–42 25 μM.
Experimental: Curcumin was also tested as a referenced compound.
as §1

huAChE, sequence (P22303 32-617 isoform P22303-2 limits assumed): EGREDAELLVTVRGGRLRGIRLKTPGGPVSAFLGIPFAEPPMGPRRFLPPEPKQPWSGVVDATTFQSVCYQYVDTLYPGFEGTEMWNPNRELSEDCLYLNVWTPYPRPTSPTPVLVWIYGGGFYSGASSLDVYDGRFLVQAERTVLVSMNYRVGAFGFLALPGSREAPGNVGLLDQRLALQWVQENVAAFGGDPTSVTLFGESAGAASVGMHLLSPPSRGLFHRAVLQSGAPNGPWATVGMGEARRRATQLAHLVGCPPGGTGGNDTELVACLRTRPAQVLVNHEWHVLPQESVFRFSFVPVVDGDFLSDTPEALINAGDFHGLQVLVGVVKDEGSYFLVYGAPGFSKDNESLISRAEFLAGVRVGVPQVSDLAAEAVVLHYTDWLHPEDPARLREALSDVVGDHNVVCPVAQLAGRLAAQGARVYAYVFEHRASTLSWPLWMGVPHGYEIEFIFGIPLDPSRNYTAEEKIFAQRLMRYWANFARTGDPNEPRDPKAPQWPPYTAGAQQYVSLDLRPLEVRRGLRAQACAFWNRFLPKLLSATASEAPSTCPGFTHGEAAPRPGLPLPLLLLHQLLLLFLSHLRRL
huAChE-induced Aβ1–40 aggregation, sequence (P22303 32-588 isoform P22303-2): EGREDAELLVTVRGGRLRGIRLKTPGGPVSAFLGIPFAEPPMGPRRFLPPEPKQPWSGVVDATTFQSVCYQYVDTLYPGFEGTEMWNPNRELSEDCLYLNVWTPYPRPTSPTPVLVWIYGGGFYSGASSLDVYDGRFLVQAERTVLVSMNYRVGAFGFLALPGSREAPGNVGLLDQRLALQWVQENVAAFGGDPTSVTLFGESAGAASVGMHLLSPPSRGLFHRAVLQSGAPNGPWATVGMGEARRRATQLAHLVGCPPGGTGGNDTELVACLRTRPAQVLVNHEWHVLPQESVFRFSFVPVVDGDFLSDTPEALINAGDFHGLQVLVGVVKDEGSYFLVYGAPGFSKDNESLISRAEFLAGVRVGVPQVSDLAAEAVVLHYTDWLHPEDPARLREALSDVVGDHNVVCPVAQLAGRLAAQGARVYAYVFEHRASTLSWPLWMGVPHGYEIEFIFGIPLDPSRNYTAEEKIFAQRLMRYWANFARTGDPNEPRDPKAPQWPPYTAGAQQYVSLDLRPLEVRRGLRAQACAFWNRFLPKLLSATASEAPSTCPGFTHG

Consider `CCN(CCCCCOc1cc(O)c2c(c1)OC(c1ccc(O)cc1)CC2=O)Cc1ccccc1` (stereo not shown) [Compound 5f, 7-((5-(benzyl(ethyl)amino)pentyl)oxy)-5-hydroxy-2–(4-hydroxyphenyl)chroman-4-one], for which, on huAChE, the “type of AChE inhibition” value is listed as “mixed-type”. For the same compound, at huAChE, the Ki stood at 740 nM. For the same compound, the inhibition at 25 µM amounted to 62.1 ± 0.38% on Aβ1–42 [1] and 73.5 ± 0.25% at Aβ1–42 [5]. The “Inhibition of huAChE-induced Aβ1–40 aggregation (%)” value in [2] amounted to 51.7 ± 0.75%. Moreover, in the series on BV-2 cells, the “cell viability of BV-2 cells” value is reported as “did not show obvious change”. Also, the TNF-α production in series [3] (1 μM) turned out to be 1130 pg/mL; in [3] (3 μM) it was 728 pg/mL; in series [3] (9 μM), 394 pg/mL. In addition, in series [3] (Mus musculus, BV-2, 1 μM, read-out: inhibitory rate of TNF-α production), the inhibition at 1 µM came out at 33.5%. In series [3] (Mus musculus, BV-2, 3 μM, read-out: inhibitory rate of TNF-α production), the inhibition at 3 µM came to 57.2%. Besides, the inhibition at 9 µM in series [3] (Mus musculus, BV-2, 9 μM, read-out: inhibitory rate of TNF-α production) came out at 76.8%. Further, the ORAC values in [4] came out at 2.3 eq. The ORAC in series [4] is listed as 2.3 ± 0.03 μM of Trolox equivalent/μM of tested compound. The viability at 2.5 µM in the series with PC12 cells (Rattus norvegicus, PC-12, compound 2.5 μM, read-out: cell viability) was determined as 62.9%. Further, the viability at 5 µM in the series on PC12 cells (Rattus norvegicus, PC-12, compound 5.0 μM, read-out: cell viability) was determined as 68.2%. The viability at 10 µM in the series on PC12 cells (Rattus norvegicus, PC-12, compound 10.0 μM, read-out: cell viability) worked out at 73.4%. In addition, the inhibition at 10 µM at AChE PAS (10 μM, read-out: Propidium iodide displacement from AChE PAS (% inhibition)) came to 25.7 ± 1.9%. Besides, on AChE PAS (50 μM, read-out: Propidium iodide displacement from AChE PAS (% inhibition)), the inhibition at 50 µM is 36.9 ± 3.5%.

Turning to “7-((6-(benzyl(ethyl)amino)hexyl)oxy)-2–(4-((6-(benzyl(ethyl)amino)hexyl)oxy)phenyl)-5-hydroxychroman-4-one [Compound 7k]”, at huAChE, the “type of AChE inhibition” value is “mixed-type”. Moreover, at huAChE, the Ki was 390 nM. Also, the “Inhibition of Aβ1–42 aggregation, Self-induced (%)” value on Aβ1–42 [1] is reported as 43.8 ± 0.51%. Further, in series [2], the “Inhibition of huAChE-induced Aβ1–40 aggregation (%)” value came to 43.4 ± 0.43%. Moreover, the “cell viability of BV-2 cells” value in the series on BV-2 cells is recorded as “did not show obvious change”. The TNF-α production in [3] (1 μM) is given as 1295 pg/mL; in [3] (3 μM), 915 pg/mL; in series [3] (9 μM), 553 pg/mL. For the same compound, the entries for the “inhibitory rate of TNF-α production” value in [3] (1 μM), in [3] (3 μM) and in [3] (9 μM) were 23.8%, 46.2% and 67.5%, respectively. In series [4], the ORAC is reported as 1.2 ± 0.02 μM of Trolox equivalent/μM of tested compound. In addition, the results for the cell viability in the series with PC12 cells (compound 2.5 μM), with PC12 cells (compound 5.0 μM) and with PC12 cells (compound 10.0 μM) were 58.3%, 63.7% and 69.8%, respectively. Further, the “Propidium iodide displacement from AChE PAS (% inhibition)” value was 23.1 ± 1.2% on AChE PAS (10 μM) and 34.3 ± 2.1% on AChE PAS (50 μM). Moreover, the “Inhibition of Aβ1–42 aggregation, Cu^2+-induced (%)” value at Aβ1–42 [5] is 68.7 ± 0.46%.

The values above are taken from paper PMC8881077 (Journal of Enzyme Inhibition and Medicinal Chemistry, 2022).
